Two compounds from patent EP4806911A1, “TRIPLE AGONIST COMPOUND” (Chengdu Aoda Biotechnology Co., Ltd, priority 2023, dated 2025) can be followed below.

This data set in a line: Preliminary pharmacokinetic characteristic evaluation. To be noted: for half-life: cynomolgus monkey, sc, male cynomolgus monkeys, administered subcutaneously at 0.2 mg/kg, plasma, LC-MS; for half-lives: cynomolgus monkeys, administered subcutaneously. It counts as in vivo, cynomolgus monkeys. The procedure: Among the above compounds, the principle of modification for long-acting was essentially the same.
The test animals were male cynomolgus monkeys. Two animals were used for each compound. The compounds were administered subcutaneously at a dose of 0.2 mg/kg. Blood samples were collected via intravenous sampling prior to administration (0 h) and at 1 h, 2 h, 3 h, 4 h, 8 h, 12 h, 18 h, 24 h, 48 h, 96 h, 144 h, and 168 h after administration. Plasma samples were obtained by centrifugation. The plasma concentrations of the compounds were respectively determined by liquid chromatography - mass spectrometry (LC-MS).

As usually defined, the half-life is how long it takes for the measured level to halve. Read a low half-life as fast loss. As to `CC[C@H](C)[C@H](NC(=O)[C@H](Cc1ccccc1)NC(=O)[C@H](C)NC(=O)C(C)(C)NC(=O)[C@H](CCC(N)=O)NC(=O)[C@H](C)NC(=O)[C@H](CCCCNC(=O)COCCOCCNC(=O)CCC[C@H](NC(=O)CCCCCCCCCCCCCCCCCCC(=O)O)C(=O)O)NC(=O)[C@H](CCCCN)NC(=O)[C@H](CC(=O)O)NC(=O)[C@H](CC(C)C)NC(=O)C(C)(CC(C)C)NC(=O)[C@@H](NC(=O)[C@H](CO)NC(=O)[C@H](Cc1ccc(O)cc1)NC(=O)[C@H](CC(=O)O)NC(=O)[C@H](CO)NC(=O)[C@@H](NC(=O)C(C)(Cc1ccccc1)NC(=O)[C@@H](NC(=O)CNC(=O)[C@H](CCC(N)=O)NC(=O)C(C)(C)NC(=O)[C@@H](N)Cc1ccc(O)cc1)[C@@H](C)O)[C@@H](C)O)[C@@H](C)CC)C(=O)N[C@@H](CCC(=O)O)C(=O)N[C@@H](Cc1ccc(O)cc1)C(=O)N[C@@H](CC(C)C)C(=O)N[C@@H](CC(C)C)C(=O)N[C@@H](CCC(=O)O)C(=O)NCC(=O)NCC(=O)N1CCC[C@H]1C(=O)N[C@@H](CO)C(=O)N[C@@H](CO)C(=O)NCC(=O)N[C@@H](C)C(=O)N1CCC[C@H]1C(=O)N1CCC[C@H]1C(=O)N1CCC[C@H]1C(=O)N[C@@H](CO)C(N)=O` (stereo partly shown) [Compound 2], the half-life was 83.5 h and the half-lives result is “greater than 80 hours”.

In the case of `CC[C@H](C)[C@H](NC(=O)[C@H](Cc1ccccc1)NC(=O)[C@H](C)NC(=O)C(C)(C)NC(=O)[C@H](CCC(N)=O)NC(=O)[C@H](C)NC(=O)[C@H](CCCCNC(=O)COCCOCCNC(=O)CCC[C@H](NC(=O)CCCCCCCCCCCCCCCCCCC(=O)O)C(=O)O)NC(=O)[C@H](CCCCN)NC(=O)[C@H](CC(=O)O)NC(=O)[C@H](CC(C)C)NC(=O)C(C)(CC(C)C)NC(=O)[C@@H](NC(=O)[C@H](CO)NC(=O)[C@H](Cc1ccc(O)cc1)NC(=O)[C@H](CC(=O)O)NC(=O)[C@H](CO)NC(=O)[C@@H](NC(=O)C(C)(Cc1ccccc1F)NC(=O)[C@@H](NC(=O)CNC(=O)[C@H](CCC(N)=O)NC(=O)C(C)(C)NC(=O)[C@@H](N)Cc1ccc(O)cc1)[C@@H](C)O)[C@@H](C)O)[C@@H](C)CC)C(=O)N[C@@H](CCC(=O)O)C(=O)N[C@@H](Cc1ccc(O)cc1)C(=O)N[C@@H](CC(C)C)C(=O)N[C@@H](CC(C)C)C(=O)N[C@@H](CCC(=O)O)C(=O)NCC(=O)NCC(=O)N1CCC[C@H]1C(=O)N[C@@H](CO)C(=O)N[C@@H](CO)C(=O)NCC(=O)N[C@@H](C)C(=O)N1CCC[C@H]1C(=O)N1CCC[C@H]1C(=O)N1CCC[C@H]1C(=O)N[C@@H](CO)C(N)=O` (stereo partly shown) [Compound 6], the half-life is 94.7 h and the half-lives result is on record as “greater than 80 hours”.
